Assay results published in patent US20250042929A1, “NEW CRYSTAL FORM OF TRISACCHARIDE” (SHANDONG HENGLU BIOTECH. CO., LTD., priority 2022, published 2025).

Experiments:
Assay type in all cases: physicochemical
[1] = Hygroscopicity study in constant temperature and humidity chamber; conditions: for Moisture rate: Example 9, after 5 days; for Added weight: about 1 g sample; for Before the experiment, appearance: before placing in chamber
Experimental: • Step 1: Preparation of glass petri dishes
One day before the experiment, place glass petri dishes (without lids) in a constant temperature and humidity chamber set at 25±1° C. and 75±2% relative humidity for 4 hours. Take out the dishes, accurately weigh, and repeat until consistent weight readings are obtained. Record the data in Table 3. • Step 2: Weigh the amorphous LNTII powder and LNTII crystalline form A from Example 1 separately, place them in the pre-weighed petri dishes from Step 1 in a constant temperature and humidity chamber set at 25° C. and 75% relative humidity. After 5 days, examine any physical changes, reweigh the samples, and calculate their hygroscopicity. Record the results in Tables 2 and 3. A comparison of the physical appearances before and after moisture exposure are depicted in FIG. 5 and FIG. 6.
Replicating the procedure outlined in Example 8, evaluate the LNTII crystalline form A samples obtained from Examples 1-7. Place the samples in pre-weighed petri dishes within a constant temperature and humidity chamber at 25° C. and 75% relative humidity. After 5 days, inspect for any changes in appearance, weigh the samples, and calculate their hygroscopicity. Document the findings in Table 4.

[2] = Stability study, sealed in aluminum-plastic composite film, 40° C. and 75% relative humidity
Experimental: In this invention, the quantification of LNTII is performed using high-performance liquid chromatography (HPLC) under the conditions listed below:
Chromatographic column: Asahipak NH2P-504E, 4.6 mm×250 mm, 5 μm particle size; mobile phase composition: acetonitrile to water in a ratio of 65:35; flow rate: 1 mL/min; detection method: UV-VIS detector; wavelength: 210 nm; column temperature: 30° C.; injection volume: 10 μL; total run time: 30 minutes.
Separately weigh 10 g of amorphous LNTII powder produced in Examples 1-7. Seal each sample with aluminum-plastic composite film. Store all samples in a constant temperature and humidity chamber at 40° C. and 75% relative humidity. Retrieve samples at the end of January, February, and March to assess the LNTII content and observe any changes in appearance. Record the outcomes in Table 5.

[3] = as above; conditions: 3 months
[4] = End of 1 month, 40° C., 75% relative humidity, HPLC
[5] = End of 2 months, 40° C., 75% relative humidity, HPLC
[6] = End of 3 months, 40° C., 75% relative humidity, HPLC
[7] = Example 8, 25° C., 75% relative humidity, 5 days

| SMILES | Moisture rate ([1]; 25° C., 75% relative humidity) [%] | Content ([2]; Day 0, LNTII content by HPLC) [%] | Content [2, 4] [%] | Content [2, 5] [%] | Content [2, 6] [%] | further results |
| --- | --- | --- | --- | --- | --- | --- |
| CC(=O)NC1C(O)[C@H](O)C(CO)O[C@H]1OC1C(O)[C@H](O[C@H]2C(CO)OC(O)C(O)C2O)OC(CO)[C@@H]1O (stereo partly shown) [Example 1 Crystalline form A, Lacto-N-triose II] | 12.87 | 97.98 | 98.02 | 97.97 | 97.96 |  |
| CC(=O)NC1C(O)[C@H](O)C(CO)O[C@H]1OC1C(O)[C@H](O[C@H]2C(CO)OC(O)C(O)C2O)OC(CO)[C@@H]1O (stereo partly shown) [Example 2 Crystalline form A, Lacto-N-triose II] | 13.26 | 98.18 | 98.15 | 98.22 | 98.23 |  |
| CC(=O)NC1C(O)[C@H](O)C(CO)O[C@H]1OC1C(O)[C@H](O[C@H]2C(CO)OC(O)C(O)C2O)OC(CO)[C@@H]1O (stereo partly shown) [Example 3 Crystalline form A, Lacto-N-triose II] | 14.09 | 97.87 | 97.90 | 97.93 | 97.88 |  |
| CC(=O)NC1C(O)[C@H](O)C(CO)O[C@H]1OC1C(O)[C@H](O[C@H]2C(CO)OC(O)C(O)C2O)OC(CO)[C@@H]1O (stereo partly shown) [Example 4 Crystalline form A, Lacto-N-triose II] | 13.61 | 92.30 | 92.32 | 92.33 | 92.27 |  |
| CC(=O)NC1C(O)[C@H](O)C(CO)O[C@H]1OC1C(O)[C@H](O[C@H]2C(CO)OC(O)C(O)C2O)OC(CO)[C@@H]1O (stereo partly shown) [Example 5 Crystalline form A, Lacto-N-triose II] | 13.79 | 92.57 | 92.61 | 92.51 | 92.64 |  |
| CC(=O)NC1C(O)[C@H](O)C(CO)O[C@H]1OC1C(O)[C@H](O[C@H]2C(CO)OC(O)C(O)C2O)OC(CO)[C@@H]1O (stereo partly shown) [Example 6 Crystalline form A, Lacto-N-triose II] | 13.32 | 91.98 | 91.94 | 91.84 | 91.93 |  |
| CC(=O)NC1C(O)[C@H](O)C(CO)O[C@H]1OC1C(O)[C@H](O[C@H]2C(CO)OC(O)C(O)C2O)OC(CO)[C@@H]1O (stereo partly shown) [Example 7 Crystalline form A, Lacto-N-triose II] | 12.74 | 98.58 | 98.56 | 98.48 | 98.56 |  |
| CC(=O)NC1C(O)[C@H](O)C(CO)O[C@H]1OC1C(O)[C@H](O[C@H]2C(CO)OC(O)C(O)C2O)OC(CO)[C@@H]1O (stereo partly shown) [LNTII amorphous powder, Lacto-N-triose II, reference compound] |  |  |  |  |  | Moisture rate (moisture absorption rate = added weight/sample weight × 100%) [1, 7]: 29.47%; Day 5, appearance ([1]; Example 8, 25° C., 75% relative humidity, 5 days, open petri dish): Light yellow, paste; Added weight [1, 7]: 0.2951 g; Before the experiment, appearance ([1]; Example 8): Off-white powder; Content ([2]; Day 0, LNTII content by HPLC, listed as Amorphous LNTII powder): 91.24%; Content ([2]; End of 1 month, 40° C., 75% relative humidity, HPLC, listed as Amorphous LNTII powder): 91.01%; Content ([2]; End of 2 months, 40° C., 75% relative humidity, HPLC, listed as Amorphous LNTII powder): 90.86%; Content ([2]; End of 3 months, 40° C., 75% relative humidity, HPLC, listed as Amorphous LNTII powder): 90.01%; Content and appearance throughout the stability study, in words ([3]; listed as amorphous LNTII powder): decreases the content and the color gradually fades to pale yellow |
| CC(=O)NC1C(O)[C@H](O)C(CO)O[C@H]1OC1C(O)[C@H](O[C@H]2C(CO)OC(O)C(O)C2O)OC(CO)[C@@H]1O (stereo partly shown) [LNTII form A, Lacto-N-triose II] |  |  |  |  |  | Stability (from appearance changes and hygroscopicity results), in words ([1]; 25° C., 75% relative humidity, 5 days, crystalline form A compared with amorphous powder): superior to the amorphous powder; Moisture rate (moisture absorption rate = added weight/sample weight × 100%) [1, 7]: 14.17%; Added weight [1, 7]: 0.1418 g; Before the experiment, appearance ([1]; Example 8): Off-white; Content and appearance throughout the stability study, in words ([3]; listed as LNTII crystalline form A): maintains its content and appearance throughout the stability study |
